Tests used:
T-cell [1] = assay: CD25 cell surface staining on T-cells stimulated with anti-CD3 antibody alone (Biological Example 2); type: cell-based; conditions: primary human total T-cells, baseline = anti-CD3/anti-CD28 stimulated cells without inhibitor, read-out: CD25 staining, Anti-CD3 stimulation, fold change over baseline; for fold induction at 1 µM: 1 μM compound; for fold induction at 8 µM: 8 μM compound
Cbl-b [2] = target: T1, Cbl-b (Homo sapiens, UniProt Q13191); assay: Cbl-b inhibition assay (Cbl-b activity assay, FRET, Biological Example 1; 100 mM NaCl, 60 nM Src kinase); type: biochemical; conditions: upper bound stated in text lists; read-out: IC50 values in the Cbl-b inhibition assay of Biological Example 1
How it was run: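 N-terminally biotinylated Avi-tagged Cbl-b was mixed with Src kinase, UbcH5B covalently conjugated to Bodipy-fluorescein ubiquitin, and streptavidin-terbium. Src phosphorylation lets Cbl-b bind UbcH5B-Ub, giving terbium-fluorescein FRET; inhibition is read as loss of FRET signal.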

T-cell [3] = assay: IL-2 secretion from T-cells co-stimulated with anti-CD3 and anti-CD28 antibody (Biological Example 2); type: cell-based, human; conditions: Homo sapiens, T-cell, primary human total T-cells, baseline = anti-CD3/anti-CD28 stimulated cells without inhibitor, read-out: IL-2 secretion, Anti-CD3/Anti-CD28 stimulation, fold change over baseline; for fold induction at 0.3 µM: 0.3 μM compound; for fold induction at 1 µM: 1 μM compound; for fold induction at 4 µM: 4 μM compound
How it was run: (§1)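 Values are fold-change over baseline: readings (IL-2 release, CD25 staining) from inhibitor-treated T-cells divided against untreated cells […]. No detailed procedure stated.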

T-cell [4] = assay: CD25 cell surface staining on T-cells co-stimulated with anti-CD3 and anti-CD28 antibody (Biological Example 2); type: cell-based, human; conditions: Homo sapiens, T-cell, primary human total T-cells, baseline = anti-CD3/anti-CD28 stimulated cells without inhibitor, read-out: CD25 staining, Anti-CD3/Anti-CD28 stimulation, fold change over baseline; for fold induction at 0.3 µM: 0.3 μM compound; for fold induction at 1 µM: 1 μM compound; for fold induction at 4 µM: 4 μM compound
How it was run: as §1

Cbl-b [5] = target: T1, Cbl-b; assay: Cbl-b activity assay (Cbl-b inhibition assay), TR-FRET of Cbl-b interaction with UbcH5B-Ub; type: biochemical; conditions: assay buffer with 100 mM NaCl, 60 nM Src kinase; read-out: Cbl-b activity IC50
How it was run: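 Compound-treated Cbl-b was incubated 1.5 h with Src kinase (60 nM final; 30 nM for asterisked values, which also used 50 mM instead of 100 mM NaCl), 1 mM ATP and 5 mM MgCl2. Binding to fluorescent Ub-loaded UbcH5B (C85K mutant) was then read by TR-FRET after 1 h more.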

T-cell [6] = assay: IL-2 secretion from T-cells stimulated with anti-CD3 antibody alone (Biological Example 2); type: cell-based; conditions: primary human total T-cells, read-out: IL-2 secretion, Anti-CD3 stimulation, fold change over baseline; for fold induction at 1 µM: 1 μM compound; for fold induction at 8 µM: 8 μM compound

T1 sequence (Q13191 36-427): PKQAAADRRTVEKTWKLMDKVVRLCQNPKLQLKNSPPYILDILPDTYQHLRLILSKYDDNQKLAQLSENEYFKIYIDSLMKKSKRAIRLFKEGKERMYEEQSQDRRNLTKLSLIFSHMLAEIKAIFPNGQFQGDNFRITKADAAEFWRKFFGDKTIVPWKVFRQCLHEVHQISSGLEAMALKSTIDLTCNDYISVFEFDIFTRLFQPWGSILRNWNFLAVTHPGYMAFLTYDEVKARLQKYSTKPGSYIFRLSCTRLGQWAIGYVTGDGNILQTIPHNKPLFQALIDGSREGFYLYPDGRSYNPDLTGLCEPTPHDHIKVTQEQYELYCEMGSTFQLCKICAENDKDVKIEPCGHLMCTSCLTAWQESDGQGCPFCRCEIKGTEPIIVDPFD

## C[C@@H]1CN(C)CCN1c1cc2c(c(C(F)(F)F)c1)CN(c1cccc([C@@](C)(F)C(F)(F)c3nncn3C)c1)C2=O [Compound 443, 6-((R)-2,4-Dimethylpiperazin-1-yl)-2-(3-((R)-1,1,2-trifluoro-1-(4-methyl-4H-1,2,4-triazol-3-yl)propan-2-yl)phenyl)-4-(trifluoromethyl)isoindolin-1-one]
T-cell [1]
  fold induction at 1 µM: 0.801 to 1
  fold induction at 8 µM: > 1
Cbl-b [2]
  IC50: ≤ 100 nM
T-cell [3]
  fold induction at 0.3 µM: 1.01 to 2.5
  fold induction at 1 µM: 1.01 to 2.5
  fold induction at 4 µM: 2.51 to 5
T-cell [4]
  fold induction at 0.3 µM: 1.01 to 1.3
  fold induction at 1 µM: 1.01 to 1.3
  fold induction at 4 µM: 1.31 to 1.5
Cbl-b [5]
  IC50: < 100 nM
T-cell [6]
  fold induction at 1 µM: < 0.05
  fold induction at 8 µM: 0.101 to 0.15

## C[C@H]1CN(C)CCN1c1cc2c(c(C(F)(F)F)c1)CN(c1cccc([C@@](C)(F)C(F)(F)c3nncn3C)c1)C2=O [Compound 444, 6-((S)-2,4-Dimethylpiperazin-1-yl)-2-(3-((R)-1,1,2-trifluoro-1-(4-methyl-4H-1,2,4-triazol-3-yl)propan-2-yl)phenyl)-4-(trifluoromethyl)isoindolin-1-one]
T-cell [1]
  fold induction at 1 µM: > 1
  fold induction at 8 µM: > 1
Cbl-b [2]
  IC50: ≤ 100 nM
T-cell [3]
  fold induction at 0.3 µM: 1.01 to 2.5
  fold induction at 1 µM: 5 to 7.5
  fold induction at 4 µM: > 7.5
T-cell [4]
  fold induction at 0.3 µM: 1.01 to 1.3
  fold induction at 1 µM: 1.01 to 1.3
  fold induction at 4 µM: 1.31 to 1.5
Cbl-b [5]
  IC50: < 100 nM
T-cell [6]
  fold induction at 1 µM: 0.101 to 0.15
  fold induction at 8 µM: > 0.201

## CN1CC2CCC(C1)N2c1cc2c(c(C(F)(F)F)c1)CN(c1cccc([C@@](C)(F)C(F)(F)c3nncn3C)c1)C2=O [Compound 445, 6-(3-Methyl-3,8-diazabicyclo[3.2.1]octan-8-yl)-2-(3-((R)-1,1,2-trifluoro-1-(4-methyl-4H-1,2,4-triazol-3-yl)propan-2-yl)phenyl)-4-(trifluoromethyl)isoindolin-1-one]
T-cell [1]
  fold induction at 1 µM: > 1
  fold induction at 8 µM: > 1
Cbl-b [2]
  IC50: ≤ 100 nM
T-cell [3]
  fold induction at 0.3 µM: 5 to 7.5
  fold induction at 1 µM: > 7.5
  fold induction at 4 µM: > 7.5
T-cell [4]
  fold induction at 0.3 µM: 1.31 to 1.5
  fold induction at 1 µM: 1.51 to 1.75
  fold induction at 4 µM: 1.51 to 1.75
Cbl-b [5]
  IC50: < 100 nM
T-cell [6]
  fold induction at 1 µM: > 0.201
  fold induction at 8 µM: > 0.201

## Cn1cnnc1C(F)(F)[C@](C)(F)c1cccc(N2Cc3c(cc(CN4CC(C(F)F)C4)cc3C(F)(F)F)C2=O)c1 [Compound 453, (R)-6-((3-(difluoromethyl)azetidin-1-yl)methyl)-2-(3-(1,1,2-trifluoro-1-(4-methyl-4H-1,2,4-triazol-3-yl)propan-2-yl)phenyl)-4-(trifluoromethyl)isoindolin-1-one]
T-cell [1]
  fold induction at 1 µM: > 1
  fold induction at 8 µM: > 1
Cbl-b [2]
  IC50: ≤ 100 nM
T-cell [3]
  fold induction at 0.3 µM: 5 to 7.5
  fold induction at 1 µM: > 7.5
  fold induction at 4 µM: > 7.5
T-cell [4]
  fold induction at 0.3 µM: 1.31 to 1.5
  fold induction at 1 µM: 1.31 to 1.5
  fold induction at 4 µM: 1.31 to 1.5
Cbl-b [5]
  IC50: < 100 nM
T-cell [6]
  fold induction at 1 µM: > 0.201
  fold induction at 8 µM: 0.151 to 0.2

## Cn1cnnc1C(F)(F)[C@](C)(F)c1cccc(N2Cc3c(cc(CN4CC[C@H](C#N)C4)cc3C(F)(F)F)C2=O)c1 [Compound 454, (S)-1-((3-oxo-2-(3-((R)-1,1,2-trifluoro-1-(4-methyl-4H-1,2,4-triazol-3-yl)propan-2-yl)phenyl)-7-(trifluoromethyl)isoindolin-5-yl)methyl)pyrrolidine-3-carbonitrile]
T-cell [1]
  fold induction at 1 µM: > 1
  fold induction at 8 µM: > 1
Cbl-b [2]
  IC50: ≤ 100 nM
T-cell [3]
  fold induction at 0.3 µM: 5 to 7.5
  fold induction at 1 µM: > 7.5
  fold induction at 4 µM: > 7.5
T-cell [4]
  fold induction at 0.3 µM: 1.01 to 1.3
  fold induction at 1 µM: 1.31 to 1.5
  fold induction at 4 µM: 1.31 to 1.5
Cbl-b [5]
  IC50: < 100 nM
T-cell [6]
  fold induction at 1 µM: > 0.201
  fold induction at 8 µM: > 0.201

## Cn1cnnc1C(F)(F)[C@](C)(F)c1cccc(N2Cc3c(cc(CN4CC(C#N)C4)cc3C(F)(F)F)C2=O)c1 [Compound 456, (R)-1-((3-oxo-2-(3-(1,1,2-trifluoro-1-(4-methyl-4H-1,2,4-triazol-3-yl)propan-2-yl)phenyl)-7-(trifluoromethyl)isoindolin-5-yl)methyl)azetidine-3-carbonitrile]
T-cell [1]
  fold induction at 1 µM: 0.801 to 1
  fold induction at 8 µM: > 1
Cbl-b [2]
  IC50: ≤ 300 nM
T-cell [3]
  fold induction at 0.3 µM: 1.01 to 2.5
  fold induction at 1 µM: 2.51 to 5
  fold induction at 4 µM: 5 to 7.5
T-cell [4]
  fold induction at 0.3 µM: 1.01 to 1.3
  fold induction at 1 µM: 1.01 to 1.3
  fold induction at 4 µM: 1.01 to 1.3
Cbl-b [5]
  IC50: 100 to 300 nM
T-cell [6]
  fold induction at 1 µM: 0.051 to 0.1
  fold induction at 8 µM: 0.101 to 0.15

## C[C@H](c1cc2c(c(C(F)(F)F)c1)CN(c1cccc([C@@](C)(F)C(F)(F)c3nncn3C)c1)C2=O)N1CC[C@H](F)C1 [Compound 459, 6-((R)-1-((S)-3-fluoropyrrolidin-1-yl)ethyl)-2-(3-((R)-1,1,2-trifluoro-1-(4-methyl-4H-1,2,4-triazol-3-yl)propan-2-yl)phenyl)-4-(trifluoromethyl)isoindolin-1-one]
T-cell [1]
  fold induction at 1 µM: > 1
  fold induction at 8 µM: > 1
Cbl-b [2]
  IC50: ≤ 100 nM
T-cell [3]
  fold induction at 0.3 µM: 2.51 to 5
  fold induction at 1 µM: > 7.5
  fold induction at 4 µM: > 7.5
T-cell [4]
  fold induction at 0.3 µM: 1.01 to 1.3
  fold induction at 1 µM: 1.31 to 1.5
  fold induction at 4 µM: 1.51 to 1.75
Cbl-b [5]
  IC50: < 100 nM
T-cell [6]
  fold induction at 1 µM: > 0.201
  fold induction at 8 µM: > 0.201

## C[C@@H](c1cc2c(c(C(F)(F)F)c1)CN(c1cccc([C@@](C)(F)C(F)(F)c3nncn3C)c1)C2=O)N1CC[C@H](F)C1 [Compound 460, 6-((S)-1-((S)-3-fluoropyrrolidin-1-yl)ethyl)-2-(3-((R)-1,1,2-trifluoro-1-(4-methyl-4H-1,2,4-triazol-3-yl)propan-2-yl)phenyl)-4-(trifluoromethyl)isoindolin-1-one]
T-cell [1]
  fold induction at 1 µM: > 1
  fold induction at 8 µM: > 1
Cbl-b [2]
  IC50: ≤ 100 nM
T-cell [3]
  fold induction at 0.3 µM: > 7.5
  fold induction at 1 µM: > 7.5
  fold induction at 4 µM: > 7.5
T-cell [4]
  fold induction at 0.3 µM: 1.31 to 1.5
  fold induction at 1 µM: 1.51 to 1.75
  fold induction at 4 µM: 1.51 to 1.75
Cbl-b [5]
  IC50: < 100 nM
T-cell [6]
  fold induction at 1 µM: > 0.201
  fold induction at 8 µM: > 0.201

## Cn1cnnc1C(F)(F)[C@](C)(F)c1cccc(N2Cc3c(cc(CN4C[C@@H](F)[C@@H](F)C4)cc3C(F)(F)F)C2=O)c1 [Compound 461, 6-(((3R,7S)-3,4-difluoropyrrolidin-1-yl)methyl)-2-(3-((R)-1,1,2-trifluoro-1-(4-methyl-4H-1,2,4-triazol-3-yl)propan-2-yl)phenyl)-4-(trifluoromethyl)isoindolin-1-one]
T-cell [1]
  fold induction at 1 µM: > 1
  fold induction at 8 µM: > 1
Cbl-b [2]
  IC50: ≤ 100 nM
T-cell [3]
  fold induction at 0.3 µM: 2.51 to 5
  fold induction at 1 µM: 5 to 7.5
  fold induction at 4 µM: > 7.5
T-cell [4]
  fold induction at 0.3 µM: 1.31 to 1.5
  fold induction at 1 µM: 1.31 to 1.5
  fold induction at 4 µM: 1.51 to 1.75
Cbl-b [5]
  IC50: < 100 nM
T-cell [6]
  fold induction at 1 µM: 0.151 to 0.2
  fold induction at 8 µM: > 0.201

## Cn1cnnc1C(F)(F)C1(c2cccc(N3Cc4c(cc(CN5CC[C@H](F)C5)cc4C(F)(F)F)C3=O)c2)CC1 [Compound 462, (S)-2-(3-(1-(difluoro(4-methyl-4H-1,2,4-triazol-3-yl)methyl)cyclopropyl)phenyl)-6-((3-fluoropyrrolidin-1-yl)methyl)-4-(trifluoromethyl)isoindolin-1-one]
T-cell [1]
  fold induction at 1 µM: > 1
Cbl-b [2]
  IC50: ≤ 100 nM
T-cell [3]
  fold induction at 0.3 µM: 5 to 7.5
  fold induction at 1 µM: > 7.5
T-cell [4]
  fold induction at 0.3 µM: 1.01 to 1.3
  fold induction at 1 µM: 1.31 to 1.5
Cbl-b [5]
  IC50: < 100 nM
T-cell [6]
  fold induction at 1 µM: > 0.201

— patent publication US20220324835A1 (Nurix Therapeutics, Inc., priority 2018, published 2022)
